Laboratory results reported in patent publication USRE49698E1, “Substituted dihydroquinazolines” (AiCuris Anti-infective Cures GmbH, priority 2003, dated 2023).
Structures can show the parent of a compound that is named as a salt. Where two headings read alike, the source gives them in different places.

What was measured:
HCMV = assay: Anti-HCMV (anti-human cytomegalovirus) cytopathogenicity test; assay type: cell-based
Method: (§1) Anti-HCMV (Anti-Human Cytomegalovirus) Cytopathogenicity Tests
(§2) The test compounds are employed as 50 millimolar (mM) solutions in dimethyl sulphoxide (DMSO). Ganciclovir®, Foscarnet® and Cidofovir® are used as reference compounds. After addition of in each case 2 μl of the 50, 5, 0.5 and 0.05 mM DMSO stock solutions to 98 μl portions of cell culture medium in row 2 A-H for duplicate determinations, 1:2 dilutions are carried out with 50 μl portions of medium up to row 11 of the 96-well plate. The wells in rows 1 and 12 each contain 50 μl of medium. In 150 μl of a suspension of 1×10^4 cells (human prepuce fibroblasts [NHDF]) are pipetted into each of the wells (row 1=cell control) and, in rows 2-12, a mixture of HCMV-infected and uninfected NHDF cells (M.O.I.=0.001-0.002), i.e. 1-2 infected cells per 1000 uninfected cells. Row 12 (without substance) serves as virus control. The final test concentrations are 250-0.0005 μM. The plates are incubated at 37° C./5% CO2 for 6 days, i.e. until all the cells are infected in the virus controls (100% cytopathogenic effect [CPE]). The wells are then fixed and stained by adding a mixture of formalin and Giemsa's dye (30 minutes), washed with double-distilled water and dried in a drying oven at 50° C. The plates are then assessed visually using an overhead microscope (Plaque Multiplier from Technomara).
The following data can be acquired from the test plates:
SI (selectivity index)=CC50 (NHDF)/EC50 (HCMV).

[1] = Cytostatic effect on NHDF cells in the anti-HCMV cytopathogenicity test plates; assay type: cell-based; settings: human, human prepuce fibroblasts (NHDF cells), 6 days incubation, visual assessment, concentration at which no visible cytostatic effects are evident vs untreated cell control
Method: as §1, §2
The following data can be acquired from the test plates: […]

[2] = Human betaherpesvirus 5, NHDF, 144 h; read-out: HCMV EC50
[3] = Human betaherpesvirus 5, NHDF, 144 h, read-out: HCMV EC50

EC50 (HCMV; [2]) [nM]	Structure (SMILES)	SI HCMV (selectivity index) (HCMV; CC50 (NHDF)/EC50 (HCMV))	CC50 at 6 days [1] [nM]	EC50 (HCMV; [3]) [nM]
16	O=C(O)CC1c2cccc(F)c2N=C(N2CCN(c3ccc(F)cc3)CC2)N1c1cccc(C(F)(F)F)c1 (single isomer, unassigned) [Example 2, {8-Fluoro-2-[4-(4-fluorophenyl)-1-piperazinyl]-3-[3-(trifluoromethyl)phenyl]-3,4-dihydro-4-quinazolinyl}acetic acid]	750	12000	–
2	COc1cccc(N2CCN(C3=Nc4c(F)cccc4C(CC(=O)O)N3c3cc(C(F)(F)F)ccc3OC)CC2)c1 (single isomer, unassigned) [Example 15, {8-Fluoro-2-[4-(3-methoxyphenyl)-1-piperazinyl]-3-[2-methoxy-5-(trifluoromethyl)phenyl]-3,4-dihydro-4-quinazolinyl}acetic acid]	–	–	–
–	Cc1cccc(N2CCN(C3=Nc4c(F)cccc4C(CC(=O)O)N3c3cccc(C(F)(F)F)c3)CC2)c1 (single isomer, unassigned) [Example 9, {8-Fluoro-2-[4-(3-methylphenyl)-1-piperazinyl]-3-[3-(trifluoromethyl)phenyl]-3,4-dihydro-4-quinazolinyl}acetic acid hydrochloride]	750	15000	20
2	COc1ccc(C(F)(F)F)cc1N1C(N2CCN(c3ccc(F)cc3)CC2)=Nc2c(F)cccc2C1CC(=O)O (single isomer, unassigned) [Example 19, {8-Fluoro-2-[4-(4-fluorophenyl)-1-piperazinyl]-3-[2-methoxy-5-(trifluoromethyl)phenyl]-3,4-dihydro-4-quinazolinyl}acetic acid]	8947	17000	–
70	NC(=O)c1ccc2c(c1)C(CC(=O)O)N(c1cccc(C(F)(F)F)c1)C(N1CCN(c3cccc(Cl)c3)CC1)=N2 (stereo not shown) [Example 29]	671	47000	–
–	COc1ccc(Cl)cc1N1C(N2CCN(c3ccc(F)cc3)CC2)=Nc2c(F)cccc2C1CC(=O)O (single isomer, unassigned) [Example 23, {8-Fluoro-2-[4-(4-fluorophenyl)-1-piperazinyl]-3-[6-methoxy-3-chlorophenyl]-3,4-dihydro-4-quinazolinyl}acetic acid hydrochloride]	12632	24000	2
